Activity calls are given as the source filed them. The calls are words filed in the database; no cut-off is given here.
How the values were obtained:
Assay type in all cases: functional, cell-based
RAW264.7 [1] = experiment: Effect on HSP70 mRNA level in Mus musculus (mouse) RAW264.7 cells pretreated for 1 hr before treatment with 100 ng/ml LPS for 6 hr by RT-PCR analysis
RAW264.7 [2] = experiment: Inhibition of LPS-induced IL-6 level in Mus musculus (mouse) RAW264.7 cells pretreated for 1 hr before treatment with 100 ng/ml LPS for 6 hr by ELISA
RAW264.7 [3] = experiment: Inhibition of LPS-induced TNF-alpha level in Mus musculus (mouse) RAW264.7 cells pretreated for 1 hr before treatment with 100 ng/ml LPS for 6 hr by ELISA
RAW264.7 [4] = experiment: Effect on HSP70 protein level in Mus musculus (mouse) RAW264.7 cells pretreated for 1 hr before treatment with 100 ng/ml LPS for 6 hr by RT-PCR analysis
RAW264.7 [5] = experiment: Inhibition of LPS-induced TLR4 expression in Mus musculus (mouse) RAW264.7 cells pretreated for 1 hr before treatment with 100 ng/ml LPS for 6 hr by Western blot analysis
RAW264.7 [6] = experiment: Inhibition of LPS-induced TLR4 expression in Mus musculus (mouse) RAW264.7 cells pretreated for 1 hr before treatment with 100 ng/ml LPS for 6 hr by RT-PCR analysis

For CC(C)[C@]12O[C@H]1[C@@H]1O[C@]13[C@]1(O[C@H]1C[C@H]1C4=C(CC[C@@]13C)C(=O)OC4)[C@@H]2O, the Activity (RAW264.7 [1]) was “inactive”, the inhibition (RAW264.7 [2]) was “Dose-dependent effect” and the inhibition (RAW264.7 [3]) was “Dose-dependent effect”. For the same compound, the Activity (RAW264.7 [4]) was “inactive”, the inhibition (RAW264.7 [5]) was “Dose-dependent effect” and the inhibition (RAW264.7 [6]) was “Dose-dependent effect”.

Reference: ChEMBL document CHEMBL3045032, “Triptolide suppresses lipopolysaccharide-induced activity of toll-like receptor 4 in mouse macrophage cell line RAW 264.7” (Med Chem Res, 2012)
